Results published in patent US20230233576A1, “ECLITASERTIB FOR USE IN TREATING CONDITIONS INVOLVING SYSTEMIC HYPERINFLAMMATORY RESPONSE” (priority 2020, published 2023).
Where two headings read alike, the source gives them in different places.

Assays:
[1] = tested on: SARS-COV-2 viral load in blood; test: Phase 1b severe COVID-19 study: quantitative SARS-COV-2 viral load in blood; conditions: for Viral load in plasma: <1660 CP/ML SARS-COV2, number of participants / Viral load in plasma: <1660 CP/ML SARS-COV2, share of participants (in parentheses) / Viral load in plasma: INCONCLUSIVE, number of participants / Viral load in plasma: INCONCLUSIVE, share of participants (in parentheses) / Viral load in plasma: NO SARS-COV2 DETECTED, number of participants / Viral load in plasma: NO SARS-COV2 DETECTED, share of participants (in parentheses) / Viral load in plasma: POSITIVE RESULT, number of participants / Viral load in plasma: POSITIVE RESULT, share of participants (in parentheses): 600 mg (N = 41); for Viral load in plasma: Positive result, Mean / Viral load in plasma: Positive result, Median: 600 mg, participants with positive result
Description: The clinical assessment in this study included both the assessment of clinical laboratory variables (CRP, laboratory markers of severe COVID-19 [D-Dimer, hematology parameters and thrombolytic therapy and vasopressor treatment]), oxygenation variables (saturated oxygen [SpO2], SpO2/fraction of inspired oxygen [FiO2] ratio), and clinical status variables (7-point clinical scale). The pharmacodynamic assessment included the measurement of peripheral biomarkers (pro-inflammatory cytokines and RIPK1 PD cytokines/chemokines), and optional measurement of viral load of SARS-CoV-2.
Exploratory clinical assessments endpoints included: • Change from baseline in ferritin and LDH at Day 7 and EOT • Proportion of participants per category of the 7-point clinical scale at EOT • Time to improvement by 2 points in category of 7-point clinical scale • Quantitative SARS-COV-2 viral load in blood at baseline and on Day 3, 5, 7 and EOT
Summary of quantitative measurement of SARS-COV-2 plasma viral load over time (at baseline, Day 3, 5, 7, and EOT) is provided in Table 28. An overall trend of decrease viral load and increased number of negative SARS-COV-2 tests were observed over time. Due to a high variability in the viral load values, no interpretation could be drawn for the effect of treatment on the viral load.

[2] = Phase 1b severe COVID-19 study: pharmacokinetics (plasma concentrations, Bayesian population PK); assay type: in vivo, human; conditions: for AUC(0-t) / Cmax: human, oral, 300 mg
Protocol: RIPK1 Inhibitor concentrations at selected time points over the two weeks of treatment were summarized by descriptive statistics. PK parameters such as Cmax, tmax, and AUC were calculated by a Bayesian analysis: the main results are presented in Section 5.2.
Descriptive statistics on plasma concentration of RIPK1 Inhibitor were analyzed by the Sponsor's Biostatistics Department.
Plasma concentrations of RIPK1 Inhibitor was listed and summarized by arithmetic mean, geometric mean, standard deviation (SD), standard error of the mean (SEM), coefficient of variance (%) (CV), minimum, median, maximum, and number of observations by timepoints. When applicable, relevant data were summarized by route: i.e., oral and oral gavage, and timepoints.
The pharmacokinetic parameters in participants with severe COVID-19 were assessed by Bayesian analysis using a POP population PK model (P0H0757) developed in other Phase 1 studies.
PK parameters were determined for 46 participants (one participant was excluded because all plasma concentrations were BLOQ). A summary of descriptive statistics on RIPK1 Inhibitor plasma AUC0-12, Cmax, and Ctrough over 2 weeks of treatment are presented in Table 43.

CN1C(=O)[C@@H](NC(=O)c2nnc(Cc3ccccc3)[nH]2)COc2cccnc21 [RIPK1 Inhibitor, (S)-5-benzyl-N-(5-methyl-4-oxo-2,3,4,5-tetrahydropyrido[3,2-b][1,4]oxazepin-3-yl)-4H-1,2,4-triazole-3-carboxamide]
Viral load in plasma: <1660 CP/ML SARS-COV2, number of participants ([1]; DAY 01 (baseline, predose)): 14 | Viral load in plasma: <1660 CP/ML SARS-COV2, share of participants (in parentheses) ([1]; DAY 01 (baseline, predose)): (34.1) | Viral load in plasma: INCONCLUSIVE, number of participants ([1]; DAY 01 (baseline, predose)): 1 | Viral load in plasma: INCONCLUSIVE, share of participants (in parentheses) ([1]; DAY 01 (baseline, predose)): (2.4) | Viral load in plasma: NO SARS-COV2 DETECTED, number of participants ([1]; DAY 01 (baseline, predose)): 11 | Viral load in plasma: NO SARS-COV2 DETECTED, share of participants (in parentheses) ([1]; DAY 01 (baseline, predose)): (26.8) | Viral load in plasma: POSITIVE RESULT, number of participants ([1]; DAY 01 (baseline, predose)): 7 | Viral load in plasma: POSITIVE RESULT, share of participants (in parentheses) ([1]; DAY 01 (baseline, predose)): (17.1) | Viral load in plasma: <1660 CP/ML SARS-COV2, number of participants ([1]; DAY 03): 12 | Viral load in plasma: <1660 CP/ML SARS-COV2, share of participants (in parentheses) ([1]; DAY 03): (29.3) | Viral load in plasma: INCONCLUSIVE, number of participants ([1]; DAY 03): 2 | Viral load in plasma: INCONCLUSIVE, share of participants (in parentheses) ([1]; DAY 03): (4.9) | Viral load in plasma: NO SARS-COV2 DETECTED, number of participants ([1]; DAY 03): 16 | Viral load in plasma: NO SARS-COV2 DETECTED, share of participants (in parentheses) ([1]; DAY 03): (39.0) | Viral load in plasma: POSITIVE RESULT, number of participants ([1]; DAY 03): 4 | Viral load in plasma: POSITIVE RESULT, share of participants (in parentheses) ([1]; DAY 03): (9.8) | Viral load in plasma: <1660 CP/ML SARS-COV2, number of participants ([1]; DAY 07): 1 | Viral load in plasma: <1660 CP/ML SARS-COV2, share of participants (in parentheses) ([1]; DAY 07): (2.4) | Viral load in plasma: INCONCLUSIVE, number of participants ([1]; DAY 07): 2 | Viral load in plasma: INCONCLUSIVE, share of participants (in parentheses) ([1]; DAY 07): (4.9) | Viral load in plasma: NO SARS-COV2 DETECTED, number of participants ([1]; DAY 07): 12 | Viral load in plasma: NO SARS-COV2 DETECTED, share of participants (in parentheses) ([1]; DAY 07): (29.3) | Viral load in plasma: POSITIVE RESULT, number of participants ([1]; DAY 07): 1 | Viral load in plasma: POSITIVE RESULT, share of participants (in parentheses) ([1]; DAY 07): (2.4) | Viral load in plasma: <1660 CP/ML SARS-COV2, number of participants ([1]; EOT): 4 | Viral load in plasma: <1660 CP/ML SARS-COV2, share of participants (in parentheses) ([1]; EOT): (9.8) | Viral load in plasma: INCONCLUSIVE, number of participants ([1]; EOT): 1 | Viral load in plasma: INCONCLUSIVE, share of participants (in parentheses) ([1]; EOT): (2.4) | Viral load in plasma: NO SARS-COV2 DETECTED, number of participants ([1]; EOT): 28 | Viral load in plasma: NO SARS-COV2 DETECTED, share of participants (in parentheses) ([1]; EOT): (68.3) | Viral load in plasma: POSITIVE RESULT, number of participants ([1]; EOT): 0 | Viral load in plasma: Positive result, Mean ([1]; DAY 01 (baseline, predose)): 30217.6 copies/mL | Viral load in plasma: Positive result, Median ([1]; DAY 01 (baseline, predose)): 7560.0 copies/mL | Viral load in plasma: Positive result, Mean ([1]; DAY 03): 7505.0 copies/mL | Viral load in plasma: Positive result, Median ([1]; DAY 03): 6332.5 copies/mL | Viral load in plasma: Positive result, Mean ([1]; DAY 07): 6240.0 copies/mL | Viral load in plasma: Positive result, Median ([1]; DAY 07): 6240.0 copies/mL | steady state reached on ([2]; 300 mg BID for up to 14 days, severe COVID-19): 3 days | exposure difference between male and female ([2]; 300 mg BID, severe COVID-19): No obvious exposure difference | higher AUC0-12h in patients<85.6 kg as compared to ≥85.6 kg ([2]; 300 mg BID, severe COVID-19): 14% | Ctrough, mean (SD) ([2]; 300 mg BID, steady state (Day 3), plasma, severe COVID-19, Bayesian population PK): 2025 (783) ng/mL | Ctrough ([2]; Day 1 (n = 46), Mean (SD), 300 mg BID, plasma, participants with severe COVID-19, Bayesian population PK analysis): 1457 (442) ng/mL | Ctrough ([2]; Day 3 (n = 42), Mean (SD), 300 mg BID, plasma, participants with severe COVID-19, Bayesian population PK analysis): 2025 (783) ng/mL | Ctrough ([2]; Day 7 (n = 26), Mean (SD), 300 mg BID, plasma, participants with severe COVID-19, Bayesian population PK analysis): 2142 (838) ng/mL | Ctrough ([2]; Day 14 (n = 10), Mean (SD), 300 mg BID, plasma, participants with severe COVID-19, Bayesian population PK analysis): 2524 (875) ng/mL | AUC(0-t) ([2]; plasma, 300 mg BID, steady state (Day 3), plasma, severe COVID-19, Bayesian population PK, read-out: AUC0-12h, mean (SD)): 42200 ng·h/mL | Cmax ([2]; plasma, 300 mg BID, steady state (Day 3), plasma, severe COVID-19, Bayesian population PK, read-out: Cmax, mean (SD)): 5170 ng/mL | AUC(0-t) ([2]; plasma, Day 1 (n = 46), Mean (SD), 300 mg BID, plasma, participants with severe COVID-19, Bayesian population PK analysis, read-out: AUC0-12): 28200 ng·h/mL | Cmax ([2]; plasma, Day 1 (n = 46), Mean (SD), 300 mg BID, plasma, participants with severe COVID-19, Bayesian population PK analysis, read-out: Cmax): 3680 ng/mL | AUC(0-t) ([2]; plasma, Day 3 (n = 42), Mean (SD), 300 mg BID, plasma, participants with severe COVID-19, Bayesian population PK analysis, read-out: AUC0-12): 42200 ng·h/mL | Cmax ([2]; plasma, Day 3 (n = 42), Mean (SD), 300 mg BID, plasma, participants with severe COVID-19, Bayesian population PK analysis, read-out: Cmax): 5170 ng/mL | AUC(0-t) ([2]; plasma, Day 7 (n = 26), Mean (SD), 300 mg BID, plasma, participants with severe COVID-19, Bayesian population PK analysis, read-out: AUC0-12): 43800 ng·h/mL | Cmax ([2]; plasma, Day 7 (n = 26), Mean (SD), 300 mg BID, plasma, participants with severe COVID-19, Bayesian population PK analysis, read-out: Cmax): 5340 ng/mL | AUC(0-t) ([2]; plasma, Day 14 (n = 10), Mean (SD), 300 mg BID, plasma, participants with severe COVID-19, Bayesian population PK analysis, read-out: AUC0-12): 48400 ng·h/mL | Cmax ([2]; plasma, Day 14 (n = 10), Mean (SD), 300 mg BID, plasma, participants with severe COVID-19, Bayesian population PK analysis, read-out: Cmax): 5630 ng/mL
